Laboratory results taken from the supplement of paper PMC13380429.

Tests used:
Settings in all cases: 72 h
HepG2 [1] = experiment: cell viability relative to DMSO; higher = less toxic
Vero E6 [2] = experiment: as above
U2OS [3] = experiment: as above
Calu-3 [4] = experiment: as above
Caco-2 [5] = experiment: as above
HepG2 [6] = experiment: relative viability EC50 (midpoint between 100% and the lowest measured viability); higher = less toxic
Vero E6 [7] = experiment: as above
U2OS [8] = experiment: as above
Calu-3 [9] = experiment: as above
Caco-2 [10] = experiment: as above
HepG2 [11] = experiment: drug sensitivity score (DSS) for viability; higher = more toxic; extreme values may be limits of the assay
Vero E6 [12] = experiment: as above
U2OS [13] = experiment: as above
Calu-3 [14] = experiment: as above
Caco-2 [15] = experiment: as above

| SMILES | cell viability (HepG2 [1]; 1 nM) | cell viability (HepG2 [1]; 10 nM) | cell viability (HepG2 [1]; 100 nM) | cell viability (HepG2 [1]; 1000 nM) | cell viability (HepG2 [1]; 10000 nM) | cell viability (Vero E6 [2]; 1 nM) | cell viability (Vero E6 [2]; 10 nM) | cell viability (Vero E6 [2]; 100 nM) | cell viability (Vero E6 [2]; 1000 nM) | cell viability (Vero E6 [2]; 10000 nM) | cell viability (U2OS [3]; 1 nM) | cell viability (U2OS [3]; 10 nM) | cell viability (U2OS [3]; 100 nM) | cell viability (U2OS [3]; 1000 nM) | cell viability (U2OS [3]; 10000 nM) | cell viability (Calu-3 [4]; 1 nM) | cell viability (Calu-3 [4]; 10 nM) | cell viability (Calu-3 [4]; 100 nM) | cell viability (Calu-3 [4]; 1000 nM) | cell viability (Calu-3 [4]; 10000 nM) | cell viability (Caco-2 [5]; 1 nM) | cell viability (Caco-2 [5]; 10 nM) | cell viability (Caco-2 [5]; 100 nM) | cell viability (Caco-2 [5]; 1000 nM) | cell viability (Caco-2 [5]; 10000 nM) | relative viability EC50 (HepG2 [6]) | relative viability EC50 (Vero E6 [7]) | relative viability EC50 (U2OS [8]) | relative viability EC50 (Calu-3 [9]) | relative viability EC50 (Caco-2 [10]) | drug sensitivity score (HepG2 [11]) | drug sensitivity score (Vero E6 [12]) | drug sensitivity score (U2OS [13]) | drug sensitivity score (Calu-3 [14]) | drug sensitivity score (Caco-2 [15]) |
| --- | --- | --- | --- | --- | --- | --- | --- | --- | --- | --- | --- | --- | --- | --- | --- | --- | --- | --- | --- | --- | --- | --- | --- | --- | --- | --- | --- | --- | --- | --- | --- | --- | --- | --- | --- |
| CC1(C)OC(=O)NC1=O [dimethadione] | 106% | 102% | 96.9% | 95.9% | 95.1% | 112% | 108% | 108% | 97.7% | 102% | 101% | 103% | 95% | 98.6% | 96.2% | 92.4% | 107% | 100% | 105% | 109% | 99.9% | 98.9% | 105% | 97.7% | 98.3% | > 10 µM | > 10 µM | > 10 µM | > 10 µM | > 10 µM | 0 | 0 | 0 | 0 | 0 |
| CN1CCC(OC(c2ccccc2)c2ccccc2)CC1 [diphenylpyraline] | 89.7% | 98.2% | 90.6% | 103% | 111% | 94.6% | 106% | 97.1% | 104% | 109% | 103% | 95.7% | 102% | 95.1% | 98.6% | 97.3% | 90% | 98.7% | 94.9% | 95.1% | 96.1% | 96.3% | 97.6% | 102% | 94.6% | > 10 µM | > 10 µM | > 10 µM | > 10 µM | > 10 µM | 0 | 0 | 0 | 0 | 0 |
| C[C@]12CCC(=O)C=C1[C@@H]1C[C@@H]1[C@H]1[C@@H]3[C@@H]4C[C@@H]4[C@@]4(CCC(=O)O4)[C@@]3(C)CC[C@@H]12 [drospirenone] | 99.1% | 102% | 106% | 98.4% | 92.7% | 108% | 102% | 112% | 101% | 89.2% | 98.7% | 102% | 103% | 104% | 88.3% | 99.5% | 97.9% | 97.4% | 100% | 120% | 86.1% | 96.5% | 96.1% | 94.1% | 108% | > 10 µM | > 10 µM | > 10 µM | > 10 µM | > 10 µM | 0 | 0 | 0 | 0 | 0 |
| O=C1Nc2ccc(Cl)cc2[C@@](C#CC2CC2)(C(F)(F)F)O1 [efavirenz] | 92.1% | 86.1% | 95.9% | 83.4% | 94.6% | 98.4% | 93.5% | 91.4% | 90% | 101% | 99.2% | 96.3% | 98.4% | 106% | 94.5% | 97.5% | 107% | 93.8% | 97.7% | 114% | 95.7% | 96.3% | 83.3% | 96.3% | 124% | > 10 µM | > 10 µM | > 10 µM | > 10 µM | > 10 µM | 0 | 0 | 0 | 0 | 0 |
| c1cc2c(c(N3CCNCC3)c1)OCCO2 [eltoprazine] | 97% | 101% | 92.2% | 92.4% | 95.7% | 96.5% | 96.5% | 97.9% | 91.9% | 103% | 98.4% | 99.6% | 92.9% | 93.6% | 88.2% | 92.4% | 76.5% | 97.7% | 108% | 107% | 105% | 97.1% | 106% | 108% | 101% | > 10 µM | > 10 µM | > 10 µM | > 10 µM | > 10 µM | 0 | 0 | 0 | 0 | 0 |
| N=C(N)NCCCC[C@@H]1NC(=O)CCSSC[C@@H](C(N)=O)NC(=O)[C@@H]2CCCN2C(=O)[C@H](Cc2c[nH]c3ccccc23)NC(=O)[C@H](CC(=O)O)NC(=O)CNC1=O [eptifibatide] | 97% | 92.6% | 94.7% | 87.1% | 95.5% | 105% | 95.2% | 100% | 94.8% | 83.3% | 96.6% | 97.4% | 93.7% | 98.5% | 96% | 96.4% | 104% | 100% | 103% | 101% | 94.6% | 99.5% | 85.8% | 95.4% | 95.6% | > 10 µM | > 10 µM | > 10 µM | > 10 µM | > 10 µM | 0 | 0.9 | 0 | 0 | 0 |
| C#C[C@]1(O)CC[C@H]2[C@@H]3CCC4=CC(=O)CC[C@@H]4[C@H]3C(=C)C[C@@]21CC [etonogestrel] | 95.4% | 97.2% | 94.1% | 90% | 104% | 98.2% | 84.7% | 95.6% | 85.2% | 104% | 93.8% | 95.1% | 93.8% | 97.1% | 103% | 92.7% | 95.1% | 104% | 97.6% | 102% | 87.3% | 75.4% | 98.7% | 81.7% | 104% | > 10 µM | > 10 µM | > 10 µM | > 10 µM | > 10 µM | 0 | 0 | 0 | 0 | 0.6 |
| COc1ccc(-c2ccc(=N)n(CCCC(=O)O)n2)cc1 [gabazine] | 91.5% | 97% | 96.8% | 95.4% | 100% | 99.5% | 100% | 98.9% | 95.9% | 96% | 102% | 98.5% | 100% | 97.1% | 103% | 94.8% | 104% | 95.1% | 98% | 93.5% | 111% | 106% | 99.9% | 105% | 103% | > 10 µM | > 10 µM | > 10 µM | > 10 µM | > 10 µM | 0 | 0 | 0 | 0 | 0 |
| O=C(O)c1cc(O)c(O)c(O)c1 [gallic-acid] | 100% | 94.8% | 102% | 91.4% | 79.6% | 99.1% | 92.4% | 95% | 106% | 102% | 99.4% | 94.8% | 96.5% | 97.3% | 106% | 85.4% | 93% | 96.4% | 102% | 102% | 104% | 89.2% | 109% | 96.7% | 101% | > 10 µM | > 10 µM | > 10 µM | > 10 µM | > 10 µM | 1.6 | 0 | 0 | 0 | 0 |
| CCN(CC)Cc1ccc2cc(COC(=O)Nc3ccc(C(=O)NO)cc3)ccc2c1 [givinostat] | 99.8% | 102% | 80.9% | 20.4% | 0.1% | 94.7% | 97.7% | 96.7% | 31.6% | -0.1% | 99.6% | 93.2% | 92.7% | 30.8% | 0.6% | 88.3% | 94.6% | 77.1% | 30.8% | 12.9% | 97.8% | 89.7% | 93.2% | 38.4% | 0.8% | 0.327 µM | 0.653 µM | 0.561 µM | 0.263 µM | 0.686 µM | 17 | 13.8 | 14.3 | 15.6 | 13.1 |
| COc1ccc2c(c1)C(=O)N(CCc1ccc(S(=O)(=O)NC(=O)NC3CCCCC3)cc1)C(=O)C2(C)C [gliquidone] | 103% | 98.9% | 96.4% | 106% | 106% | 97.8% | 99.5% | 92.3% | 100% | 94.9% | 91% | 89.3% | 102% | 87.1% | 95.9% | 106% | 96.5% | 99.9% | 104% | 106% | 88.1% | 95.3% | 109% | 102% | 101% | > 10 µM | > 10 µM | > 10 µM | > 10 µM | > 10 µM | 0 | 0 | 0 | 0 | 0 |
| C[N+]1(C)CCC(OC(=O)C(O)(c2ccccc2)C2CCCC2)C1 (stereo not given) [glycopyrrolate] | 108% | 99.3% | 97.4% | 92.3% | 105% | 106% | 100% | 100% | 99.7% | 98.3% | 101% | 102% | 98% | 99.5% | 95.1% | 102% | 105% | 97.7% | 102% | 98.5% | 104% | 98.6% | 94.8% | 103% | 96% | > 10 µM | > 10 µM | > 10 µM | > 10 µM | > 10 µM | 0 | 0 | 0 | 0 | 0 |
| COC1=CC(=O)C[C@@H](C)[C@]12Oc1c(Cl)c(OC)cc(OC)c1C2=O [griseofulvin] | 86.3% | 95.5% | 95.6% | 101% | 90% | 104% | 98.8% | 91.1% | 107% | 94.8% | 102% | 100% | 102% | 98.8% | 96.2% | 106% | 95.7% | 98% | 107% | 108% | 106% | 88.5% | 93.6% | 103% | 88.1% | > 10 µM | > 10 µM | > 10 µM | > 10 µM | > 10 µM | 0 | 0 | 0 | 0 | 0 |
| O=C(O)C1=CCCNC1 [guvacine] | 102% | 97% | 96.3% | 100% | 105% | 100% | 101% | 98% | 104% | 97.5% | 105% | 98.9% | 102% | 96.5% | 102% | 106% | 99% | 102% | 88.2% | 92.2% | 99.7% | 85.6% | 102% | 102% | 96.5% | > 10 µM | > 10 µM | > 10 µM | > 10 µM | > 10 µM | 0 | 0 | 0 | 0.4 | 0 |
